From PMC8882856, “The affinity and selectivity of α‐adrenoceptor antagonists, antidepressants and antipsychotics for the human α2A, α2B, and α2C‐adrenoceptors and comparison with human α1 and β‐adrenoceptors” (Pharmacology Research & Perspectives, 2022)
Entries after “also recorded” stand apart in the source; their conditions may differ. Read-outs that look alike come from different tables or passages of the source. Blank lines part the entries; values can stand above or below the compound they belong to.

How the values were obtained:
[1] = biological target: T1, human α2A‐adrenoceptor (Homo sapiens, UniProt P08913); test: ^3H‐RX821002 whole cell competition binding, CHO‐α2A cells; conditions: for Log KD α2A: ^3H‐RX821002 as radioligand, living CHO cells, log values, mean ± s.e.mean, ^app = apparent KD from extrapolated curve
T1 sequence (P08913 1-465): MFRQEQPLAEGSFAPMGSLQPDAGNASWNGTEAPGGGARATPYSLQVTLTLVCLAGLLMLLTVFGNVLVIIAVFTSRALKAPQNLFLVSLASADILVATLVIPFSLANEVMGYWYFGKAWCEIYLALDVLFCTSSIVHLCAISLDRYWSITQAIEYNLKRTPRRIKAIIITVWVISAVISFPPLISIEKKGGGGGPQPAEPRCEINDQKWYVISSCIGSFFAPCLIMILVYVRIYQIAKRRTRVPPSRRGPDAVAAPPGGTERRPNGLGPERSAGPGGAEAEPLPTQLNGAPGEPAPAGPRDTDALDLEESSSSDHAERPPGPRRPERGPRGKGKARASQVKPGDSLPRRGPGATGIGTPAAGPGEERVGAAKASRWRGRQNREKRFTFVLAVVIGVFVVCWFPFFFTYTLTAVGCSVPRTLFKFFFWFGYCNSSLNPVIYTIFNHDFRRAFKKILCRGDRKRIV

[2] = biological target: T2, human α2C‐adrenoceptor (Homo sapiens, UniProt P18825); test: ^3H‐RX821002 whole cell competition binding, CHO‐α2C cells; conditions: ^3H‐RX821002 as radioligand; living CHO cells; log values, mean ± s.e.mean
T2 sequence (P18825 1-462): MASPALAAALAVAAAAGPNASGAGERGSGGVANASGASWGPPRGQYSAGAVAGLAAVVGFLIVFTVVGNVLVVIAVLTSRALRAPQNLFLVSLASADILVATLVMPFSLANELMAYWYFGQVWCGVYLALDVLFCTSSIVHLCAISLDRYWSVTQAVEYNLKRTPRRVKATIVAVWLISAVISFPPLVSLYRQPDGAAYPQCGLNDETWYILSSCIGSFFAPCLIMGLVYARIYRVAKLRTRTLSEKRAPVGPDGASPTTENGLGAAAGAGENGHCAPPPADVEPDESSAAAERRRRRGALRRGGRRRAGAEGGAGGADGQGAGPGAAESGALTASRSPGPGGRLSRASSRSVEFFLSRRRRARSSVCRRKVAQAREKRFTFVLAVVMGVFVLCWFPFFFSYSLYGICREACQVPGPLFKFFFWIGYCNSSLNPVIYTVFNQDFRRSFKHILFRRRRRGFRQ

[3] = biological target: T3, human α2B‐adrenoceptor (Homo sapiens, UniProt P18089)
T3 sequence (P18089 1-450): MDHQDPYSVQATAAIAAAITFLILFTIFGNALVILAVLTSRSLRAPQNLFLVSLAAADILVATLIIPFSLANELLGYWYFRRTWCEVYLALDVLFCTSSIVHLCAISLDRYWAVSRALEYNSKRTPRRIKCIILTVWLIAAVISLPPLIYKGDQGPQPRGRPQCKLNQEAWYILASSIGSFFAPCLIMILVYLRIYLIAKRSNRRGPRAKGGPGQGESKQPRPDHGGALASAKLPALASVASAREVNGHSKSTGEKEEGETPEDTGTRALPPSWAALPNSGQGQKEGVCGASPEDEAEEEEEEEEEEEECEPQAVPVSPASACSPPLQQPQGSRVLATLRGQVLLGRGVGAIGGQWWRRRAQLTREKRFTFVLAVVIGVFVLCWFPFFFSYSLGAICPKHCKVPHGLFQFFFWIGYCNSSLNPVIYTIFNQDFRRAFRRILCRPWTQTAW

[4] = biological target: T4, human β1‐adrenoceptor (Homo sapiens, UniProt P08588)
T4 sequence (P08588 whole entry): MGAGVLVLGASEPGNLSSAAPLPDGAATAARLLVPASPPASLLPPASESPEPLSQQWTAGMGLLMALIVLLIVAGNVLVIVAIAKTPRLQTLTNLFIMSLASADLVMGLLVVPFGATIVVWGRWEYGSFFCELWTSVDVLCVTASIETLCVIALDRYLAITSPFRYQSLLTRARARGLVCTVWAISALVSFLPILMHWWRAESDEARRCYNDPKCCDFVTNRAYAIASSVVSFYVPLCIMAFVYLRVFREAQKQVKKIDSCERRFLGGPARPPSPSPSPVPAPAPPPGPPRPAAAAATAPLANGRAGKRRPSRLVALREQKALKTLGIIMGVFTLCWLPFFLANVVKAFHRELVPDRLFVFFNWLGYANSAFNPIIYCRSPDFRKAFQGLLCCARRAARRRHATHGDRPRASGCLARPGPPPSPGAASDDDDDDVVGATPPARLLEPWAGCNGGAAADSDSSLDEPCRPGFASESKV

[5] = biological target: T1, human α2A‐adrenoceptor; test: ^3H‐rauwolscine whole cell competition binding, CHO‐α2A cells
[6] = biological target: T2, human α2C‐adrenoceptor; test: ^3H‐rauwolscine whole cell competition binding, CHO‐α2C cells
[7] = biological target: T3, human α2B‐adrenoceptor; test: ^3H‐RX821002 whole cell competition binding, CHO‐α2B cells
[8] = biological target: human β2‐adrenoceptor (Homo sapiens, UniProt P07550); type: binding
Sequence of human β2‐adrenoceptor (P07550 whole entry): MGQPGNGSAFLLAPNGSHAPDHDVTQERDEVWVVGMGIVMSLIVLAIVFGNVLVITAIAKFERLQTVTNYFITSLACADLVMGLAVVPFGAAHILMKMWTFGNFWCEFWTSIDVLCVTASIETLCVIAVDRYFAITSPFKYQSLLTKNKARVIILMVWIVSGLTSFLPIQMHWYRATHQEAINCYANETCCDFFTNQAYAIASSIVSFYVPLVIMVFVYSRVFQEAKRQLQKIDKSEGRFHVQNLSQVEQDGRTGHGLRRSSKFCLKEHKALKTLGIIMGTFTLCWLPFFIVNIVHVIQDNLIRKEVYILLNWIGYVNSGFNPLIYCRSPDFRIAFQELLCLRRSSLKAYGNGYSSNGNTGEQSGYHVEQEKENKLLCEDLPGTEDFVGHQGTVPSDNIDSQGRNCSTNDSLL

[9] = biological target: T2, human α2C‐adrenoceptor
[10] = biological target: T1, human α2A‐adrenoceptor
[11] = biological target: T3, human α2B‐adrenoceptor; test: ^3H‐rauwolscine whole cell competition binding, CHO‐α2B cells
[12] = test system: human α2‐adrenoceptors; test: ^3H‐rauwolscine whole cell binding, α2‐adrenoceptors stated without subtype; conditions: across α2 subtypes, this study; read-out: affinity for the α2‐adrenoceptors
[13] = biological target: T1, human α2A‐adrenoceptor; test: cell-based
[14] = biological target: human α1A‐adrenoceptor; set-up: method as in PMID 32608144; conditions: identical whole cell method; ref [33]; read-out: α1A‐adrenoceptor affinity; cited from earlier work
[15] = biological target: human α2A‐adrenoceptors; conditions: read-out: α2A affinity, cited from earlier work
[16] = biological target: human α2C‐adrenoceptors; conditions: read-out: α2C affinity, cited from earlier work
[17] = biological target: T2, human α2C‐adrenoceptor; test: cell-based
[18] = biological target: T4, human β1‐adrenoceptor; test: cell-based
[19] = test system: human α1A‐adrenoceptor; test: whole cell binding at α1A‐adrenoceptor, identical technique, previous study [33]
[20] = ^3H‐RX821002 as radioligand, living CHO cells, log values, mean ± s.e.mean, ^app = apparent KD
[21] = ^3H‐CGP12177 whole cell binding, log values, mean ± s.e.mean, ^app = apparent KD, 'no binding to' = log top concentration
[22] = ^3H‐RX821002 membrane binding, human receptors expressed in mouse cells, ref [30]
[23] = ^3H‐rauwloscine membrane binding, human receptors expressed in COS cells, ref [28]

SMILES: CN1CC[C@]2(CCN3CCc4c(oc5ccccc45)[C@@H]3C2)N(C)C1=O [MK‐912]
Log KD α2A [1]: −8.76 ± 0.05 | Log KD α2C [2]: −10.00 ± 0.15 | Kd [3]: 6.92 nM | IC50 (log) β1, IC50>top concentration used [4]: IC50>−4 | Log KD α2A [5]: −8.71 ± 0.05 | Selectivity ratio α2A vs α2B (higher affinity for α2A) [5]: 3.6 | Log KD α2C [6]: −9.82 ± 0.11 | Selectivity ratio α2A vs α2C (higher affinity for α2C) [6]: 12.9 | Selectivity ratio α2B vs α2C (higher affinity for α2C) [6]: 45.7 | selectivity for α2C over α2A [6]: 13 fold | selectivity for α2C over α2B [6]: 46 fold | Kd ([6]; read-out: α2C‐affinity): 0.15 nM | Log KD α2B [7, 20]: −8.23 ± 0.11 | IC50 (log) β2, IC50>top concentration used [8]: IC50>−4

Log KD α2A [1]: −8.23 ± 0.02 | Log KD α2C [2]: −8.28 ± 0.07 | Kd [3]: 35.5 nM | Log KD β1 [4, 21]: −4.55 ± 0.05 | Kd [9]: 7.24 nM | Kd [10]: 7.94 nM | Selectivity ratio α2A vs α2B (higher affinity for α2A) ([5]; ratio of KD values): 4.5 | Selectivity ratio α2A vs α2C (higher affinity for α2C) ([6]; ratio of KD values): 1.1 | Selectivity ratio α2B vs α2C (higher affinity for α2C) ([6]; ratio of KD values): 4.9 | Log KD α2B [7, 20]: −7.67 ± 0.04 | Log KD β2 [8, 21]: −3.95 ± 0.11^app
SMILES: COC1(C2=NCCN2)COc2ccccc2O1 (stereo not shown) [RX821002]

SMILES: COc1cccc(OC)c1OCCNCC1COc2ccccc2O1 (stereo not shown) [WB4104]
Log KD α2A [1]: −7.58 ± 0.05 | Log KD α2C [2]: −8.24 ± 0.13 | IC50 (log) β1, IC50>top concentration used ([4]; ^3H‐CGP12177, log value): IC50>−4 | Log KD α2A [5]: −7.55 ± 0.05 | Selectivity ratio α2A vs α2B (higher affinity for α2A) [5]: 6.0 | Log KD α2C [6]: −8.17 ± 0.05 | Selectivity ratio α2A vs α2C (higher affinity for α2C) [6]: 4.2 | Selectivity ratio α2B vs α2C (higher affinity for α2C) [6]: 25.1 | Log KD α2B [7]: −6.88 ± 0.05 | IC50 (log) β2, IC50>top concentration used ([8]; ^3H‐CGP12177, log value): IC50>−4 | Log KD α2B [11]: −6.77 ± 0.05

SMILES: CCN1CCCC1CNC(=O)c1cc(S(=O)(=O)CC)c(N)cc1OC (stereo not shown) [amisulpiride]
Kd [12]: > 1000 nM | Log KD β1 [4]: No binding to −4; also recorded: No binding to -4 | Log KD α2A [5]: −5.11 ± 0.09^app | Selectivity ratio α2A vs α2B (higher affinity for α2A) [5]: 2.6 | Log KD α2C [6]: −5.57 ± 0.07 | Selectivity ratio α2A vs α2C (higher affinity for α2C) [6]: 2.9 | Selectivity ratio α2B vs α2C (higher affinity for α2C) [6]: 7.6 | Log KD β2 [8]: No binding to −4; also recorded: No binding to -4 | Log KD α2B [11]: −4.69 ± 0.13^app

Kd [1]: 263 nM | Kd [13]: 288 nM
SMILES: COc1ccccc1OCCNCC(O)COc1cccc2[nH]c3ccccc3c12 (stereo not shown) [carvedilol]

SMILES: CN(C)CCCN1c2ccccc2Sc2ccc(Cl)cc21 [chlorpromazine]
Kd [14]: 1 nM | Kd ([15]; ^3H‐RX821002 membrane binding to human platelets, ref [23]): 2240 nM | Kd ([15]; ^3H‐RX821002 membrane binding, human receptors expressed in CHO cells, ref [29]): 600 nM | Kd [15, 22]: 1010 nM | Kd [15, 23]: 78 nM | Kd [16, 22]: 85 nM | Kd [16, 23]: 41 nM

SMILES: COc1ccccc1N1CCN(CC(O)COc2cccc3ccccc23)CC1 (stereo not shown) [naftapidil]
Kd [17]: 67.6 nM | Kd [18]: 1070 nM | α1A‐affinity greater than β2‐affinity [19]: 3 fold | Selectivity ratio α2A vs α2C (higher affinity for α2C) ([6]; ratio of KD values): 4.2 | Selectivity ratio α2B vs α2C (higher affinity for α2C) ([6]; ratio of KD values): 3.7 | Kd [13]: 282 nM | Kd ([8]; ^3H‐CGP12177 whole cell binding, log values, mean ± s.e.mean, ^app = apparent KD, 'no binding to' = log top concentration, read-out: Log KD β2 (converted)): 35.5 nM | Kd ([8]; this study, read-out: β2‐adrenoceptor affinity): ~30 nM | Kd [11]: 251 nM | Selectivity ratio α2A vs α2B (higher affinity for α2B) ([11]; ratio of KD values): 1.1
